Experimental data: patent US20170281758A1, “CAL[…] DRUG […] AN A[…] TO A SUGAR MOIETY ON CALICHEAMICIN” (Sorrento Therapeutics, Inc., priority 2016, published 2017)

Experiments:
BT474 (Her2+++) = conditions: anti-HER2 IgG ADC, treatment 5 days, 50% cell growth inhibition
Protocol: (§1) The antibody used was an anti-HER2 IgG class of antibody. Seven breast cancer cell lines with various level of Her2 expression as indicated with plus or minus signs in the table below were plated in 96 well plate. The ADCs as listed under Drug-Linker ID were serial diluted and added onto cells for treatment for 5 days. At the end of the study, cell proliferation was measured by Promega's CellTitreGlo.

JIMT-1 (Her2+++) = conditions: anti-HER2 IgG ADC, treatment 5 days, 50% cell growth inhibition
Protocol: as §1

MCF-7 (Her2+/−) = conditions: anti-HER2 IgG ADC, treatment 5 days, 50% cell growth inhibition
Protocol: as §1

MDA-453 (Her2++) = conditions: anti-HER2 IgG ADC, treatment 5 days, 50% cell growth inhibition
Protocol: as §1

MDA468 (Her2−) = conditions: anti-HER2 IgG ADC; MDA468 (Her2−) control cell line; treatment 5 days; 50% cell growth inhibition
Protocol: as §1

SKBR-3 (Her2+++) = conditions: anti-HER2 IgG ADC, treatment 5 days, 50% cell growth inhibition
Protocol: as §1

[1] = system: Seven breast cancer cell lines with various level of Her2 expression; experiment: Overall assessment of anti-HER2 ADCs over the cell panel (efficacy, toxicity, therapeutic window); assay type: cell-based
Protocol: as §1

HCC1954 (Her2+++) = conditions: anti-HER2 IgG ADC, treatment 5 days, 50% cell growth inhibition
Protocol: as §1

## CCN(C(=O)CNC(=O)OCc1ccc(NC(=O)[C@H](C)NC(=O)[C@@H](NC(=O)CCCC(=O)O)C(C)C)cc1)C1COC(OC2C(O[C@H]3C#C/C=C\C#C[C@]4(O)CC(=O)C(NC(=O)OC)=C3/C4=C\CSSC(C)CCC(=O)NC3C(O)OC(CO)C(O)C3O)OC(C)C(NOC3CC(O)C(SC(=O)c4c(C)c(I)c(OC5OC(C)C(O)C(OC)C5O)c(OC)c4OC)C(C)O3)C2O)CC1OC (stereo partly drawn) [Compound 40]
BT474 (Her2+++)
  EC50: 0.9 nM
JIMT-1 (Her2+++)
  EC50: 0.35 nM
MCF-7 (Her2+/−)
  EC50: 90 nM
MDA-453 (Her2++)
  EC50: 0.1 nM
MDA468 (Her2−)
  EC50: 41.7 nM
SKBR-3 (Her2+++)
  EC50: 0.657 nM
[1]
  Assessment of efficacy and toxicity / therapeutic window: successful candidates with high efficacy and good therapeutic window

## CCN(C(=O)CNC(=O)OCc1ccc(NC(=O)[C@H](C)NC(=O)[C@@H](NC(=O)CCCn2nnc(CBr)c2CBr)C(C)C)cc1)C1COC(OC2C(O[C@H]3C#C/C=C\C#C[C@]4(O)CC(=O)C(NC(=O)OC)=C3/C4=C\CSSC(C)(C)CCC(=O)NCCOCCOCCOCCO)OC(C)C(NOC3CC(O)C(SC(=O)c4c(C)c(I)c(OC5OC(C)C(O)C(OC)C5O)c(OC)c4OC)C(C)O3)C2O)CC1OC (stereo partly drawn) [Compound 30]
BT474 (Her2+++)
  EC50: 1.41 nM
JIMT-1 (Her2+++)
  EC50: 0.09 nM
MCF-7 (Her2+/−)
  EC50: 0.5 nM
MDA-453 (Her2++)
  EC50: 0.05 nM
MDA468 (Her2−)
  EC50: 24 nM
SKBR-3 (Her2+++)
  EC50: 0.065 nM
[1]
  Assessment of efficacy and toxicity / therapeutic window: successful candidates with high efficacy and good therapeutic window

## CCN(C(=O)CNC(=O)OCc1ccc(NC(=O)[C@H](CC(N)=O)NC(=O)[C@H](C)NC(=O)[C@H](C)NC(=O)CCC(=O)N2CCC(C(=O)O)CC2)cc1)C1COC(OC2C(O[C@H]3C#C/C=C\C#C[C@]4(O)CC(=O)C(NC(=O)OC)=C3/C4=C\CSSC(C)(C)CC(=O)NCC(O)CO)OC(C)C(NOC3CC(O)C(SC(=O)c4c(C)c(I)c(OC5OC(C)C(O)C(OC)C5O)c(OC)c4OC)C(C)O3)C2O)CC1OC (stereo partly drawn) [Compound 15]
BT474 (Her2+++)
  EC50: 1.46 nM
HCC1954 (Her2+++)
  EC50: 0.064 nM
JIMT-1 (Her2+++)
  EC50: 0.17 nM
MCF-7 (Her2+/−)
  EC50: > 100 nM
SKBR-3 (Her2+++)
  EC50: 0.17 nM
[1]
  Assessment of efficacy and toxicity / therapeutic window: successful candidates with high efficacy and good therapeutic window

## CCN(C(=O)CNC(=O)OCc1ccc(NC(=O)[C@H](C)NC(=O)[C@@H](NC(=O)CCCC(=O)O)C(C)C)cc1)C1COC(OC2C(O[C@H]3C#C/C=C\C#C[C@]4(O)CC(=O)C(NC(=O)OC)=C3/C4=C\CSSC(C)CCC(=O)NCC(O)CO)OC(C)C(NOC3CC(O)C(SC(=O)c4c(C)c(I)c(OC5OC(C)C(O)C(OC)C5O)c(OC)c4OC)C(C)O3)C2O)CC1OC (stereo partly drawn) [Compound 37]
BT474 (Her2+++)
  EC50: 1.53 nM
JIMT-1 (Her2+++)
  EC50: 0.141 nM
MCF-7 (Her2+/−)
  EC50: 0.33 nM
MDA-453 (Her2++)
  EC50: 0.33 nM
MDA468 (Her2−)
  EC50: 16.9 nM
SKBR-3 (Her2+++)
  EC50: 0.234 nM
[1]
  Assessment of efficacy and toxicity / therapeutic window: successful candidates with high efficacy and good therapeutic window
